Measured values published in patent US7932284B2, “Indole sulfonamide modulators of progesterone receptors” (Eli Lilly and Company, priority 2006, dated 2011).

What was measured:
[1] = molecular target: T1, human AR (androgen receptor) (Homo sapiens, UniProt P10275); assay: AR competition binding assay (HEK293 cell lysate); settings: 0.36 nM 3H-methyltrienolone, 293-AR lysate
T1 construct: expressed in transfected cells; host or cells: HEK293
T1 sequence (P10275 1-920): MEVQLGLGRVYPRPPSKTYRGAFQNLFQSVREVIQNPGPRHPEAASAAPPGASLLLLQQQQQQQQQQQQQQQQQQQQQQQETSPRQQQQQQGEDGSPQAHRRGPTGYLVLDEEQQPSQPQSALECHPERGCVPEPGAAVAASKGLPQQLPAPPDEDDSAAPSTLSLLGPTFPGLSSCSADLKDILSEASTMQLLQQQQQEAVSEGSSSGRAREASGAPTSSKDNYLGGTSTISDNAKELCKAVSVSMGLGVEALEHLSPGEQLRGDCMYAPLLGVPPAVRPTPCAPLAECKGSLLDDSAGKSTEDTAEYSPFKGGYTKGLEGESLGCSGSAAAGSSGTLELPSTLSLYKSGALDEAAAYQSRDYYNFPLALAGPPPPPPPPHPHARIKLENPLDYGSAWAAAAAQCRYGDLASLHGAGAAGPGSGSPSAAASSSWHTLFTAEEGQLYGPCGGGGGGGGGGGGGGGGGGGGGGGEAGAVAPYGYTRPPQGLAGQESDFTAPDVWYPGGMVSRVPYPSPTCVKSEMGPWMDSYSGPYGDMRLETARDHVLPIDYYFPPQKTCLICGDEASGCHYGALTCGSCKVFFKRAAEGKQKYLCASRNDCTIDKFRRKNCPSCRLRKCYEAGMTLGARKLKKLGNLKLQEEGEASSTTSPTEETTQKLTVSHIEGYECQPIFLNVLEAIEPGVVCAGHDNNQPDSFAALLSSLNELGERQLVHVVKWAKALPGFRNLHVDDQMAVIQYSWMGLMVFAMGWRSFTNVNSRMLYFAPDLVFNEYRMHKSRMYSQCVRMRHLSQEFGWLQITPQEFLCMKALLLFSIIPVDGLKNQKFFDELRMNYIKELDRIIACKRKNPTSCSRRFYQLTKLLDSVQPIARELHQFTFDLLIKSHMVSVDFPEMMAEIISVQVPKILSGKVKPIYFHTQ
Procedure: (§1) Cell lysates from HEK293 cells overexpressing human GR (glucocorticoid receptor), AR (androgen receptor), MR (mineralocorticoid receptor) or PR (progesterone receptor) are used for competition binding assays to determine Ki values for compounds of interest. Briefly, competition binding assays are run in a buffer containing 20 mM HEPES, pH 7.6, 0.2 mM EDTA, 75 mM NaCl, 1.5 mM MgCl2, 20% glycerol, 20 mM sodium molybdate, 0.2 mM DTT, 20 ug/ml aprotinin, and 20 ug/ml leupeptin, using either 0.3 nM ^3H-dexamethasone for GR binding, 0.36 nM ^3H-methyltrienolone for AR binding, 0.25 nM ^3H-aldosterone for MR binding, or 0.29 nM ^3H-methyltrienolone for PR binding, and either 20 ug 293-GR lysate, 22 ug 293-AR lysate, 20 ug 293-MR lysate or 40 ug 293-PR lysate per well. Competing compounds are added at various concentrations in half-log increments. Non-specific binding is determined in the presence of 500 nM dexamethasone for GR binding, 500 nM aldosterone for MR binding, or 500 nM methyltrienolone for AR and PR binding. The binding reaction (140 μl) is incubated overnight at 4° C., then 70 μl of cold charcoal-dextran buffer (containing per 50 ml of assay buffer, 0.75 g of charcoal and 0.25 g of dextran) is added to each reaction. Plates are mixed 8 minutes on an orbital shaker at 4° C. Plates are then centrifuged at 3,000 rpm at 4° C. for 10 minutes. An aliquot of 120 μl of the mixture is transferred to another 96-well plate and 175 μl of Wallac Optiphase “Hisafe 3” scintillation fluid is added to each well. Plates are sealed and shaken vigorously on an orbital shaker. After an incubation of 2 hrs, plates are read in a Wallac Microbeta counter. […] The Kd for ^3H-dexamethasone for GR binding, ^3H-methyltrienolone for AR binding, ^3H-aldosterone for MR binding, or ^3H-methyltrienolone for PR binding, is determined by saturation binding. The IC50 values for compounds are converted to Ki using Cheng-Prusoff equation and the Kd determined by saturation binding assay.

[2] = molecular target: T2, human GR (glucocorticoid receptor) (Homo sapiens, UniProt P04150); assay: GR competition binding assay (HEK293 cell lysate); settings: 0.3 nM 3H-dexamethasone, 293-GR lysate
T2 construct: expressed in transfected cells; host or cells: HEK293
T2 sequence (P04150 1-777): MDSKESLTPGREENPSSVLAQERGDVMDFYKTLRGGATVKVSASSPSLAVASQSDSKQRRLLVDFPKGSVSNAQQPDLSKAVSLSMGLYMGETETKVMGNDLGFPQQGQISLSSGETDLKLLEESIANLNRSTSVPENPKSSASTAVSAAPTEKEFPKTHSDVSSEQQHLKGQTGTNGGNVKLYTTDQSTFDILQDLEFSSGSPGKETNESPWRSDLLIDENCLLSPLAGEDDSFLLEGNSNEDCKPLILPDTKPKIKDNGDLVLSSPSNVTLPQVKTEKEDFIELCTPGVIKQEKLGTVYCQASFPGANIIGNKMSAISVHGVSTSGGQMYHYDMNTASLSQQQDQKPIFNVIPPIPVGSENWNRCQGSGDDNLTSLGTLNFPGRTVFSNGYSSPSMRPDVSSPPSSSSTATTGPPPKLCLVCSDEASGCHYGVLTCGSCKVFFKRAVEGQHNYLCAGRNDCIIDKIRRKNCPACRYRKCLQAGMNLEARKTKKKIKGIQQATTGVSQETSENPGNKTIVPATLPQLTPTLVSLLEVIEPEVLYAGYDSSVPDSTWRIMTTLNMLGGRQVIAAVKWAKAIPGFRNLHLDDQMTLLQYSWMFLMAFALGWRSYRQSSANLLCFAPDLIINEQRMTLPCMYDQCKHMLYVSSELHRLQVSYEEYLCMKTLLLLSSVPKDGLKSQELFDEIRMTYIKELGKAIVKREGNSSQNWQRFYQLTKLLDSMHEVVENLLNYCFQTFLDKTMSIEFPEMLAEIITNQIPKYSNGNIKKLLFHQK
Procedure: as §1

| Ki [1] [nM] | Ki [2] [nM] | Compound |
| --- | --- | --- |
| > 1000 | > 1000 | CC(C)n1cc(-c2ccc(C#N)cc2)c2ccc(NS(=O)(=O)C(F)(F)F)cc21 [Example 98, N-[3-(4-Cyano-phenyl)-1-isopropyl-1H-indol-6-yl]-C,C,C-trifluoro-methanesulfonamide] |
| > 1000 | > 1000 | CC(C)n1cc(-c2ccc(C#N)cc2)c2ccc(NS(=O)(=O)N3CCOCC3)cc21 [Example 100, Morpholine-4-sulfonic acid [3-(4-cyano-phenyl)-1-isopropyl-1H-indol-6-yl]-amide] |
| > 1000 | > 1000 | CC(C)n1cc(-c2ccc3c(cnn3C)c2)c2ccc(NS(C)(=O)=O)cc21 [Example 107, N-[1-Isopropyl-3-(1-methyl-1H-indazol-5-yl)-1H-indol-6-yl]-methanesulfonamide] |
